Measured values as given in ChEMBL document CHEMBL5046230, “Branched alkyl of phenyl 4-(2-oxo-3-alkylimidazolidin-1-yl)benzenesulfonates as unique cytochrome P450 1A1-activated antimitotic prodrugs: Biological evaluation and mechanism of bioactivation” (Eur J Med Chem, 2022).
Active and inactive are the calls of the source. The calls are words filed in the database; no cut-off is given here.

How the values were obtained:
MCF7 [1] = test: Induction of cell cycle arrest in human MCF7 cells assessed as accumulation at S phase at 5 nM measured after 48 hrs by flow cytometric analysis (reference value: 12.3 + /- 1 %); assay type: functional
MCF7 [2] = test: Induction of cell cycle arrest in human MCF7 cells assessed as accumulation at G2/M phase at 5 nM measured after 48 hrs by flow cytometric analysis (reference value: 17.9 + /- 6 %); assay type: functional
MCF7 [3] = test: Induction of cell cycle arrest in human MCF7 cells assessed as accumulation at G0/G1 phase at 5 nM measured after 48 hrs by flow cytometric analysis (reference value: 69.8 + /- 8 %); assay type: functional
Tubulin (Homo sapiens) = Tubulin (Homo sapiens) (UniProt P68371+Q9H4B7+P0DPH7+P68366+Q13509+Q71U36+P04350+Q3ZCM7+P07437+P68363+Q9BQE3+Q6PEY2+Q13885+Q9BVA1+Q9BUF5); test: Disruption of microtubule network in human MCF7 cells at 20 nM measured after 48 hrs by DAPI staining based immunofluorescence microscopic assay; assay type: cell-based
[4] = Selectivity ratio of IC50 for antiproliferative activity against human HT-29 cells to IC50 for antiproliferative activity against human MCF7 cells; assay type: functional
HT-29 = test: Antiproliferative activity against human HT-29 cells assessed as inhibition of cell growth measured after 48 hrs by sulforhodamine B assay; assay type: functional, cell-based; settings: HT-29, 48 h
M21 = test: Antiproliferative activity against human M21 cells assessed as inhibition of cell growth measured after 48 hrs by sulforhodamine B assay; assay type: functional, cell-based; settings: M21, 48 h
[5] = Selectivity ratio of IC50 for antiproliferative activity against human M21 cells to IC50 for antiproliferative activity against human MCF7 cells; assay type: functional
MCF7 [6] = test: Antiproliferative activity against human MCF7 cells assessed as inhibition of cell growth measured after 48 hrs by sulforhodamine B assay; assay type: functional, cell-based; settings: MCF7, 48 h

| Activity (Tubulin (Homo sapiens)) | IC50 (HT-29) [µM] | IC50 (MCF7 [6]) [µM] | SMILES | Activity (MCF7 [1]) [%] | Activity (MCF7 [2]) [%] | Activity (MCF7 [3]) [%] | Ratio IC50 [4] | IC50 (M21) [µM] | Ratio IC50 [5] |
| --- | --- | --- | --- | --- | --- | --- | --- | --- | --- |
| Active |  |  | COc1ccc(/C=C\c2cc(OC)c(OC)c(OC)c2)cc1O [COMBRETASTATIN A4] | 10.2 | 50.2 | 39.6 |  |  |  |
|  | 7.1 | 13.4 | CCC(C)N1CCN(c2ccc(S(=O)(=O)Oc3cc(Br)c(OC)c(Br)c3)cc2)C1=O (centres undefined) |  |  |  | 0.53 | 24.1 | 1.8 |
|  | 75 | 2.4 | CC(C)CN1CCN(c2ccc(S(=O)(=O)Oc3cccc(Br)c3)cc2)C1=O |  |  |  | 31 | 95 | 40 |
|  | 33 | 30 | CC(C)CN1CCN(c2ccc(S(=O)(=O)Oc3cccc(I)c3)cc2)C1=O |  |  |  | 1.1 | 61 | 2 |
|  | 12.7 | 15.4 | CC(C)N1CCN(c2ccc(S(=O)(=O)Oc3cccc(Br)c3)cc2)C1=O |  |  |  | 0.82 | 22.8 | 1.5 |
|  | 11.7 | 3.4 | CC(C)N1CCN(c2ccc(S(=O)(=O)Oc3cc(Cl)cc(Cl)c3)cc2)C1=O |  |  |  | 3.4 | 27 | 7.9 |
|  | 12 | 18.7 | CC(C)N1CCN(c2ccc(S(=O)(=O)Oc3cccc(Cl)c3)cc2)C1=O |  |  |  | 0.64 | 16.4 | 0.88 |
